test system: mouse liver microsomes, percent remaining, LC-MS/MS; test: qHTS for Activators of Human alpha-Glucosidase as a Potential Chaperone Treatment of Pompe Disease: Metabolic Stability; details: at 5 µM; hits give high values
Excerpt: Alpha-glucosidase is responsible for hydrolysis of terminal, non-reducing 1,4-linked alpha-D-glucose residues with release of alpha-D-glucose. It is a lysosomal hydrolase that is required for the degradation of a small percentage (1-3%) of cellular glycogen in human. Deficiency of this enzyme results in glycogen-storage disease type II (GSDII), also referred to as Pompe disease, an autosomal recessive disorder. Structurally normal glycogen is accumulated in lysosomes and cytoplasm in affected patients, primarily in muscle tissues. Excessive glycogen storage within lysosomes may interrupt normal functioning of other organelles and leads to cellular injury. In turn, this leads to enlargement and dysfunction of the entire organ involved (eg, cardiomyopathy and muscle weakness). It has reported that the improper folding and trafficking of alpha-glucosidase resulting from the genetic mutations may account for a significant number of Pompe patients. […] We optimized this alpha-glucosidase assay in 1536-well plate format for identifying the novel small molecule inhibitors with the structures other than the sugar analogs in order to develop the new pharmacological chaperones. The probe and other compounds were characterized in this metabolic stability assay to asses their properties. NIH Chemical Genomics Center [NCGC] NIH Molecular Libraries Probe Production Centers Network [MLPCN] MLPCN Grant: MH084841 Assay Submitter (PI): Wei Zheng
5uM of compound is incubated with mouse liver microsome; the reference compounds are verapamil and warfarin. Compounds are incubated and samples are analyzed with LC-MS/MS.

Row | SMILES | percent remaining [%]
1 | CCCN1CNc2c(c(=O)[nH]c(=S)n2Cc2ccc(OC)c(OC)c2)C1 | 101
2 | CCCN1CNc2c(c(=O)[nH]c(=S)n2CCc2cccc(Cl)c2Cl)C1 | 105
3 | CCCN1CNc2c(c(=O)[nH]c(=S)n2CCc2ccc(OC)c(OC)c2)C1 | 4
